Entries after “also recorded” stand apart in the source; their conditions may differ.
How the values were obtained:
C. difficile strain 630 = test: Colonization levels of C. difficile in the cecum of infected mice; type: in vivo; settings: strain 630, 96 hr post infection, misoprostol vs vehicle
Method: FIG. 5. […] (A) Mice were infected by gavage with 10^6 spores of the NAP1/BI/027 strain […] and treated daily with the PGE analogue misoprostol (or vehicle) by intraperitoneal (IP) injection. n=5 per group. (B) To assess intestinal permeability mice were infected with […] of […] and given misoprostol 20 μg/mouse by IP injection 30 min before infection, 24 hr post-infection and at the time of FITC-dextran treatment. 2 d post infection mice were gavaged with FITC-dextran or vehicle control, then euthanized 4 hr later and concentrations of FITC-dextran in plasma were determined (*P<0.05). (C) Colonization levels of C. difficile strain 630 in the cecum for infected mice exposed to misoprostol or vehicle 96 hr post infection (*P<0.05).

[1] = test system: human esophageal epithelial (HET-1A) cells; settings: cited from earlier work
[2] = human; cited from earlier work
PGE2 EP receptors = settings: cited from earlier work
strain M7404 = test: Misoprostol in indomethacin-exposed CDI mice; type: in vivo, Female C57BL/6 mice
esophageal ulcer = settings: rats, cited from earlier work
NAP1/BI/027 strain M7404 = test: Misoprostol in acute CDI mouse model (survival, FITC-dextran intestinal permeability, diarrhea); type: in vivo, mice; settings: for CDI severity: mice, M7404 spores, daily misoprostol IP vs vehicle
[3] = target: T1, prostaglandin E2 receptor 4 (EP4) receptor (Mus musculus, UniProt P32240); settings: another mouse model, oral administration; cited from earlier work
T1 construct: endogenous in cells; host or cells: mouse, in vivo (colon tissue); result quoted from Watanabe et al. 2015
T1 sequence (P32240 whole entry): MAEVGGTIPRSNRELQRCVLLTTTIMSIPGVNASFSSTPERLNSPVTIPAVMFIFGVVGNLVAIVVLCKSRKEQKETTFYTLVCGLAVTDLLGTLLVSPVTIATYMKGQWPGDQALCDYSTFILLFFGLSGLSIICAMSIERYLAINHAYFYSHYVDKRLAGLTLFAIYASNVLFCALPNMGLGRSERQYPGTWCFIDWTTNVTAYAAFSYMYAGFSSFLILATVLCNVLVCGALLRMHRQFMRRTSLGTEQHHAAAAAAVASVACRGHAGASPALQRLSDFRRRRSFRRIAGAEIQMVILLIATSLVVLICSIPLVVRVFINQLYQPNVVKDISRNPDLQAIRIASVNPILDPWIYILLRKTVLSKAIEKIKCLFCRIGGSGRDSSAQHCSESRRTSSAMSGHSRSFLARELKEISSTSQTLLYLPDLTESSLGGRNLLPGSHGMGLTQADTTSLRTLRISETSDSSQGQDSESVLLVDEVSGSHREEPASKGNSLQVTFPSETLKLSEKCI

[4] = target: T1, prostaglandin E2 receptor 4 (EP4) receptor; settings: oral administration, mouse model; cited from earlier work
[5] = mice; cited from earlier work
C. difficile [6] = test: Tissue PGE2 (ELISA) and histological colitis score in C. difficile infected mice treated with indomethacin; type: in vivo; settings: for tissue damage and acute inflammation (colitis): blinded histological score: edema, neutrophilic inflammation, epithelial damage; for tissue PGE2 levels: indomethacin gavage once daily until day +4, ELISA
Method: FIG. 3. […] (A) Mice were infected with C. difficile and treated with indomethacin by gavage once daily starting on the day of infection until mice were euthanized on day +4. Tissue PGE2 concentrations were measured by ELISA. n=5 mice per group. (B) Histological assessment of colitis was performed in a blinded fashion. The score incorporates edema, neutrophilic inflammation, and epithelial damage. (C and D) Tissue cytokine and chemokine concentrations were measured by ELISA. n=5 mice per group. *P<0.05.

[7] = test system: NAP1 C. difficile strain M7404; type: in vivo, C57BL/6 mice; settings: mice, NSAID given before or after infection, clinical NAP1/027 isolate; indomethacin 10 mg/kg gavage, ibuprofen 5 mg/kg in drinking water
C. difficile [8] = settings: C. difficile-infected mice, cited from earlier work

For `CCCC[C@](C)(O)C/C=C/[C@H]1[C@H](O)CC(=O)[C@@H]1CCCCCCC(=O)OC` (racemic) [misoprostol, (11a, 13E)-(±)-11,16-dihydroxy-16-methyl-9-oxoprost-13-en-1-oic acid methyl ester], the “C. difficile colonization levels” value (C. difficile strain 630) is listed as “reduced C. difficile colonization levels”, the VEGF expression [1] is listed as “stimulated VEGF expression” and the “increase of intracellular cAMP levels” value [1] is listed as 163 fold. For the same compound, the “phosphorylation of CREB” value [1] was “induced phosphorylation of CREB”, the “protection of colonic mucosa against mucosal insults” value [2] was “potently protects human colonic mucosa” and the “binding to PGE2 EP receptors” value (PGE2 EP receptors) was “binds all 4 of the PGE2 EP receptors”. For the same compound, the “CDI in indomethacin-exposed mice” value (strain M7404; INDO 10 mg/kg days −2 and −1, 1×10^4 spores M7404, 20 mg misoprostol i.p. daily) was “improves CDI”, the “survival, Log-rank (Mantel-Cox) test” value (strain M7404; mouse, in vivo, ip) was “not statistically significant” and the “CREB phosphorylation, VEGF expression and angiogenesis” value (esophageal ulcer; esophageal ulcer) was “enhanced phosphorylation of CREB, stimulated VEGF expression and angiogenesis”. The esophageal ulcer healing (esophageal ulcer) was “accelerated esophageal ulcer healing”, the diarrhea (NAP1/BI/027 strain M7404; infected mice, misoprostol vs vehicle/placebo) was “reduced diarrhea; also recorded: fared significantly better” and the CDI severity (NAP1/BI/027 strain M7404) was “reduced CDI severity”. The CDI severity (NAP1/BI/027 strain M7404; listed as Misoprostol) was “reduces CDI severity” and the death / survival (NAP1/BI/027 strain M7404; mouse, in vivo, ip) was “prevented death; also recorded: fared significantly better”.

For `Cc1cccc([C@@H](C)[C@H](O)/C=C/[C@@H]2[C@@H]3[C@H](C[C@H]2O)O/C(=C\CCCc2nn[nH]n2)C3(F)F)c1` [KAG-308], the colorectal carcinogenesis [3] is listed as “prevented colorectal carcinogenesis” and the “onset of dextran sulfate sodium-induced colitis and mucosal healing” value [4] is listed as “suppressed onset of dextran sulfate sodium-induced colitis and promoted mucosal healing”.

In the case of `CCCCC[C@H](O)/C=C/[C@H]1[C@H](O)CC(=O)[C@@H]1C/C=C\CCCC(=O)O` [PGE2, Prostaglandin E2], the “colitis induced by DSS” value [5] is given as “significantly improved colitis”.

In the case of `Nc1ncnc2c1ncn2[C@@H]1O[C@@H]2COP(O)(=S)O[C@H]2[C@H]1O` (some centres unmarked) [Rp-cAMP], the “action on the effects of misoprostol (cAMP, CREB phosphorylation, VEGF expression)” value [1] is listed as “blocked”.

For `Nc1ncnc2c1ncn2[C@@H]1O[C@@H]2COP(O)(=S)O[C@H]2[C@H]1O` (some centres unmarked) [Sp-cAMP], the “action on the effects of misoprostol (cAMP, CREB phosphorylation, VEGF expression)” value [1] is given as “mimicked”.

With `COc1ccc2c(c1)c(CC(=O)O)c(C)n2C(=O)c1ccc(Cl)cc1` [indomethacin] the “tissue damage and acute inflammation (colitis)” value (C. difficile [6]) was “induced more tissue damage and acute inflammation”, the “tissue damage and acute inflammation (colitis)” value (C. difficile [6]; listed as Indomethacin) was “worsens colitis” and the “tissue PGE2 levels” value (C. difficile [6]) was “suppressed tissue PGE2 levels”. The “tissue PGE2 levels” value (C. difficile [6]; listed as Indomethacin) was “inhibits PGE2 production” and the “mortality in CDI” value [7] was “higher mortality”.

In the case of `CN[C@H](CC(C)C)C(=O)N[C@H]1C(=O)N[C@@H](CC(N)=O)C(=O)N[C@H]2C(=O)N[C@H]3C(=O)N[C@H](C(=O)N[C@H](C(=O)O)c4cc(O)cc(O)c4-c4cc3ccc4O)[C@H](O)c3ccc(c(Cl)c3)Oc3cc2cc(c3O[C@@H]2O[C@H](CO)[C@@H](O)[C@H](O)[C@H]2O[C@H]2C[C@](C)(N)[C@H](O)[C@H](C)O2)Oc2ccc(cc2Cl)[C@H]1O` [vancomycin], the “relapse of colitis after treatment” value (C. difficile [8]; with increased colonization levels and toxin production) is given as “gradual return of colitis by day 16” and the resolution of colitis (C. difficile [8]) is given as “accelerates resolution of colitis”.

Source: patent publication US20190298735A1, “TREATMENT AND PREVENTION OF CLOSTRIDIUM DIFFICILE COLITIS USING MISOPROSTOL” (Vanderbilt University, priority 2016, published 2019)
